Molecules are shown by their SMILES. Like-named read-outs stand apart in the source and are kept apart here.

Data set [1] relates to HUVEC cells. In words: Endothelial cell proliferation assay (CCK-8). It counts as cell-based, Human. To be noted: Homo sapiens, 18 hours exposure, CCK-8 assay, n = 9. On the procedure:
Anti-angiogenic drugs were screened in a concentration gradient in the HUVEC culture assay. […] Cell proliferation was assessed using a CCK-8 assay (Dojindo). Statistical analysis by two-way Anova. Error represents the standard error of the mean.
HUVEC cells were purchased from ATCC (Manassas, VA) and cultured as previously described. No further authentication was performed. Cells were seeded at 6.5 × 10^4 cells per well in 100 μL of medium per well. Drugs were diluted in prewarmed DMEM. Serial dilutions were performed from 1000–0.1 nM. The cells were left to grow for 18 hours with exposure to vehicle control (DMSO) or drugs. Experiments were done in triplicate each time. Cellular proliferation was assessed using a CCK-8 assay (Dojindo, Rockville, MD). All plates were read at 450 nm.
For orientation: Formazan colour is commonly taken as a measure of viable cells.

The subject of data set [2] is Mouse. To be noted: cited from earlier work.
The conditions of data set [3]: human; cited from earlier work.
Data set [4] has as its system chicken embryos. The procedure: We then administered the compounds to developing chicken embryos to observe any teratogenic effects. […] At 48 hours post drug application both the survival rate and the incidence of defects were analyzed. A range of concentrations was tested to determine the effects and optimal concentration that was not 100% lethal.
Fertilized white leghorn chicken embryos purchased from Henry Stewart Ltd. (Herefordshire, United Kingdom) were maintained in an incubator as described previously. At Hamburger and Hamilton stage 18–20 (E2.5-3)[54] the eggs were windowed and the embryos were prepared for drug exposure. To establish a dose response the drugs were applied once to the embryos and growth was monitored as described previously. In a second set of experiments, filter paper squares were cut 100 μm × 100 μm and soaked in the compound of interest for 10 minutes. While the filter paper squares absorbed the solution, embryonic membranes were removed and the sponge was then placed onto the limb bud. The eggs were sealed with tape and returned to an incubator. The embryos were checked daily for developmental defects and to ensure the filter paper squares remained in place. Control embryos were treated with 100 μL PBS with 0.1% DMSO. Embryos were removed from the eggs and fixed in 5% TCA at 4 degrees for 24 hours. Embryos were then washed in alcian blue for 8 hours, and placed in acid ethanol over night before being dehydrated in 100% ethanol for three one hour treatments. The tissue was then cleared in methyl salicylate. Cartilage was imaged and subsequently measured using a graticule scale and ImageJ. A minimum of 8 embryos was used per drug, per concentration. All animal work was licensed and carried out in accordance with and with approval of UK Home Office and Institutional ethical and welfare guidelines.

Data set [5] has as its system fli1:EGFP zebrafish embryos. In words: fli1:EGFP zebrafish embryo exposure: survival and intersegmental vessel development. Type of data set: in vivo. The procedure:
We then examined the extent and nature of the anti-angiogenic effects of the compounds using transgenic fli1:EGFP zebrafish embryos. The vasculature of these fish is tagged with EGFP and the transparency of the zebrafish allows for visualization of the forming blood vessels and any effect of anti-cancer drugs on their development over time (Fig. 4). A known anti-angiogenic and teratogenic compound (CPS49) was screened alongside the drugs as a positive control at 10 μg/mL (30 μM), a previously established anti-angiogenic concentration.
fli1:EGFP zebrafish were obtained from the Zebrafish international Resource Centre[29] and maintained in an approved aquarium habitat at 28 °C. At 24 hours post fertilization (hpf) the embryos were checked for GFP expression using a fluorescent microscope and manually dechorionated with forceps, exposed to either a vehicle control, or an anti-angiogenic anti-cancer compound (at 24 hpf) for 24 hours and imaged at 48 hpf. At this point the embryos were anaesthetized in 0.1% tricaine and the length and number of intersegmental vessels (ISV) were quantified as previously described. A minimum of 10 embryos were screened per drug, per concentration, and experiments were performed in triplicate.

Data set [6] concerns developing limb bud of chicken embryos. In words: Drug-soaked filter paper square placed on the developing limb bud of chicken embryos. It counts as in vivo. The settings on record: filter paper square soaked in drug, HH St 18–20. The text has this:
Given the potency of these drugs and the resulting embryonic lethality we focused our attention on how the drugs affect limb development. The developing limb bud is a well studied morphological assay[22][41][42] ideal for understanding mechanisms of embryogenesis and how drugs influence this process. Moreover, other anti-angiogenic drugs like thalidomide and valproate cause limb defects. […] We therefore established a method where a small filter paper square soaked in the drug of interest could be placed directly onto the limb tissue of the embryo, thus avoiding or minimalizing exposure of the drug to other developing tissue/structures and retaining high viability. Filter paper squares were soaked for 10 minutes prior to removal of the embryonic membrane of HH St 18–20 (E2.5-E3) chicken embryos, then placed over the developing limb bud. Filter paper squares soaked in 0.1% DMSO had no effect on limb outgrowth.
The tissue was then cleared in methyl salicylate.

In data set [7] the test system is Mouse (strain specific) Rabbit. Set-up: method as in PMID 11006136. To be noted: cited from earlier work.
The test system of data set [8] is chicken embryos. The settings on record: thalidomide not tested in this paper; cited from earlier work.

What is called IC50 is the concentration at which inhibition is half-maximal. In turn, `CO[C@@H]1[C@H](OC(=O)NC(=O)CCl)CC[C@]2(CO2)[C@H]1[C@@]1(C)O[C@@H]1CC=C(C)C` [TNP-470] yielded an IC50 in data set [1] below 10 nM. For the same compound, in data set [2] (Mouse/Mice), the Defects produced entry is “Complete failure of embryonic growth” and the “Systemic exposure (AUC) compared to human exposure” value is on record as “Below human”. The “effect during pregnancy in mouse models” value in data set [2] is “anti-angiogenic, disrupting newly developing blood vessels in the placenta and embryonic eye”. For the same compound, in data set [3], the “Clinical Toxicities” value is listed as “Neurotoxicity”. The “Defects produced in chicken embryos” value in data set [4] (Table 1 summary) is “Embryolethality, cranial hemorrhaging, micropthalmia, limb defects, spine”. Also, the “defects observed in treated embryos” value in data set [4] (global treatment, surviving embryos) is recorded as “twisting of the spinal cord”. In data set [5] (200 μg/mL), the treated zebrafish killed is listed as 90% and the vessel outgrowth result is on record as “reducing vessel outgrowth”. Further, the “effect at low doses” value in data set [5] (<200 μg/mL) was “little effect”. Further, the “relative potency in reducing vessel outgrowth” value in data set [5] (concentration gradient, within 24 hours of drug exposure) is given as “no effect until 200 μg/mL”. Further, the “effect on limb after direct application to limb bud” value in data set [6] was “Tissue was necrotic-looking”.
On to `O=C1CCC(N2C(=O)c3ccccc3C2=O)C(=O)N1` (stereo not shown) [Thalidomide, thalidomide], for which the “Clinical Toxicities” value in data set [3] was “Somnolence, constipation, neuropathy, venous thromboembolism and rash/unknown”. In addition, in data set [7], the Defects produced result is listed as “Increased resorptions, embryotoxicity, eye defects” and the “Systemic exposure (AUC) compared to human exposure” value is reported as “At recommended human dose/Not applicable”. Moreover, in data set [8], the “Defects produced in chicken embryos” value is on record as “Embryolethality, cranial hemorrhaging, micropthalmia, limb defects, spine”.

The values are drawn from publication PMC4957076, “Shared mechanism of teratogenicity of anti-angiogenic drugs identified in the chicken embryo model” (Scientific Reports, 2016).
